Data reported in publication PMC9354954, “Assessing Bioavailability and Bioactivity of 4-Hydroxythiazolidine-2-Thiones, Newly Discovered Glucosinolate Degradation Products Formed During Domestic Boiling of Cabbage” (Frontiers in Nutrition, 2022).

Key:
[1] = Uptake and excretion from red cabbage broth, human self-experiment (24 h urine, LC-MS/MS); assay type: in vivo; details: male, 500 mL red cabbage broth, oral, n = 3, mean ± SD, read-out: recovery in collected urine within 24 h compared to the amount of intake
Protocol: To obtain the GLS degradation products allyl HTT and 4-MSOB HTT in the food matrix, a kitchen practice approach was applied. Therefore, 1.2 kg of fresh conventional red cabbage (Brassica oleracea var. capitata f. rubra) bought in a supermarket were cut into approximately 4 × 4 × 4 cm pieces and boiled for 1 h in 3 L of tap water without additives in a stainless-steel pot with a glass lid on a kitchen stove. After cooling to room temperature, three male authors of this study (27–39 years) drank 500 mL of the red cabbage boiling solution (broth) without red cabbage pieces. […] In total, 950 μL of 1:1 diluted red cabbage boiling solution was measured in 3 different ways (each prepared as duplicates): (1) Spiked with 50 μL water, (2) spiked with 50 μL of a solution with concentrations of 1 μM for allyl HTT and 5 μM for 4-MSOB HTT, or (3) spiked with 50 μL of a solution with concentrations of 3 μM for allyl HTT and 10 μM for 4-MSOB HTT. Urine samples were measured in three different ways (each prepared as duplicates): 200 μL of undiluted urine was spiked with (1) 1 μL of water, (2) 1 μL of a solution with concentrations of 4 μM for allyl HTT and 8 μM for 4-MSOB HTT, or (3) 1.5 μL of a solution with concentrations of 4 μM for allyl HTT and 8 μM for 4-MSOB HTT. […]

HepG2 cells = assay: Metabolite formation in medium after 24 h incubation with HepG2 cells (HPLC-UV, qToF); assay type: in vitro ADME, human; details: 100 μM, 24 h with HepG2 cells, vs spiked medium without cells
Protocol: Additionally, the removed non-spiked and spiked medium after 24 h of cell incubation was measured by the UPLC-DAD system (see Section Stability of 4-Hydroxythiazolidine-2-Thiones in a Stomach Model) and HPLC method 2 at 280 ± 2 nm and after 10-fold pre-concentration, using solid-phase extraction (Chromabond®, C18, 3 mL/500 mg, Macherey-Nagel) by an HPLC-DAD-ESI-qToF system (Agilent 1290 Infinity II for the binary pump, Agilent 1290 Infinity for autosampler, degasser, column oven, Agilent 1260 Infinity for DAD detector, and Agilent 1260 Infinity II, for an isocratic pump for adding reference mass solution) using A = water and B = MeCN: 0 to 3 min 2% B, an increase to 14 min up to 98% B, holding for 5.4 min followed by a decrease to 2% B at 20 min, and re-equilibration with 2% B for 4.5 min, using a flow rate of 300 μL/min, Agilent Zorbax Eclipse Plus C8 column (see Section Stability of 4-Hydroxythiazolidine-2-Thiones in a Stomach Model), and a column oven temperature of 35°C. […]

[2] = Antioxidant potential, ABTS assay; details: compared to compound free blank
Protocol: To evaluate the potential of allyl HTT and 4-MSOB HTT to act as antioxidants, ABTS and DPPH were used as model radicals and Trolox as reference antioxidants based on Shalaby and Shanab ([28]). In total, 1.5 mg of ABTS and 0.26 mg potassium peroxodisulfate were dissolved in 4 mL of pure water and incubated in the dark overnight at room temperature. Afterward, 36 mL of MeOH were added to obtain the fresh ABTS working solution. In the case of the DPPH assay, 1.1 mg of DPPH were dissolved in 4 mL of MeOH and incubated for 2 h in the dark at 4°C, followed by the addition of 36 mL of MeOH to obtain the fresh DPPH working solution. Standards of Trolox, allyl HTT, and 4-MSOB HTT were prepared in water/MeOH (90/10, v/v%) at concentrations in the range of 6.25–100 μM. To detect the antioxidant potential, 100 μL of standard or water/MeOH (90/10, v/v%) as control were added to 1,000 μL of ABTS or DPPH working solution, and the extinction was measured directly after mixing and after 6 min of incubation in the dark with a spectrometer (UviLine 9100, Schott Instruments, Mainz, Germany) at 734 nm in the case of ABTS assay and 515 nm in DPPH assay (each prepared as duplicate). The results are reported as mean ± SD of the reduction of the extinction compared to the control.

Structure (SMILES) | dose excreted [1] [%] | newly formed metabolites in spiked medium (LC-UV chromatogram) (HepG2 cells) | Relative signal reduction of the extinction value of the radical ABTS ([2]; 6.25 µM) [%] | Relative signal reduction of the extinction value of the radical ABTS ([2]; 12.5 µM) [%] | Relative signal reduction of the extinction value of the radical ABTS ([2]; 25 µM) [%] | Relative signal reduction of the extinction value of the radical ABTS ([2]; 50 µM) [%] | Relative signal reduction of the extinction value of the radical ABTS ([2]; 100 µM) [%]
C[S+]([O-])CCCCN1C(=S)SCC1O (centres unmarked) [4-MSOB HTT, 4-hydroxy-3-(4-(methylsulfinyl)butyl)thiazolidine-2-thione] | 21 ± 4 | a new peak was observed | 0.6 ± 0.5 | -0.1 ± 0.5 | -0.5 ± 0.4 | 1.1 ± 0.8 | 0.4 ± 0.5
C=CCN1C(=S)SCC1O (centres unmarked) [allyl HTT, 3-allyl-4-hydroxythiazolidine-2-thione] | 18 ± 5 | did not show any additional signals | -0.2 ± 0.3 | -0.3 ± 0.3 | 0.4 ± 0.4 | 0.3 ± 0.5 | -0.3 ± 0.3
